Source: ChEMBL document CHEMBL1158384, “Design, synthesis, and biological evaluation of 1,5-benzothiazepine-4-one derivatives targeting factor VIIa/tissue factor” (Bioorg Med Chem Lett, 2009)

Experiments:
Coagulation factor X = Coagulation factor X (Homo sapiens, UniProt P00742); assay: Inhibition of human factor 10a by spectrometry
[1] = biological target: Coagulation factor VII/tissue factor (Homo sapiens, UniProt P08709); assay: Inhibition of human tissue factor/factor 7a; format: protein-complex assay
Prothrombin = Prothrombin (Homo sapiens, UniProt P00734); assay: Inhibition of human factor 2a by spectrophotometry

Coagulation factor X, sequence (P00742 41-179 limits assumed): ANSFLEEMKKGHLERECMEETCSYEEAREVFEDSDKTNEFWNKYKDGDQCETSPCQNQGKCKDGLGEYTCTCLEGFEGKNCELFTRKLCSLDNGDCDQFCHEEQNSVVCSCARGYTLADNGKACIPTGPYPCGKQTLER
Coagulation factor X, sequence (P00742 235-488 limits assumed): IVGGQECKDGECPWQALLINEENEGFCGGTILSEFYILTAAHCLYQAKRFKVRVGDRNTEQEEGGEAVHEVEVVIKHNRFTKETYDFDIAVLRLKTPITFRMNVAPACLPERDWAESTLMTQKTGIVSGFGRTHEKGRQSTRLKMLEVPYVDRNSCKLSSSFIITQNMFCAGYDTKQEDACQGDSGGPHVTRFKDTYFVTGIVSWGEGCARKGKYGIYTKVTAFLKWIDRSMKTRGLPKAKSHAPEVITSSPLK
Coagulation factor VII/tissue factor, sequence (P08709 61-212 limits assumed): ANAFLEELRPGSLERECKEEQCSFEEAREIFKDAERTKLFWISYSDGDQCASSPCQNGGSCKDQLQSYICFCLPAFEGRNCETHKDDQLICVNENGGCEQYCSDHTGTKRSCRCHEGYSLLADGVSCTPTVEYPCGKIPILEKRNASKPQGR
Coagulation factor VII/tissue factor, sequence (P08709 213-466 limits assumed): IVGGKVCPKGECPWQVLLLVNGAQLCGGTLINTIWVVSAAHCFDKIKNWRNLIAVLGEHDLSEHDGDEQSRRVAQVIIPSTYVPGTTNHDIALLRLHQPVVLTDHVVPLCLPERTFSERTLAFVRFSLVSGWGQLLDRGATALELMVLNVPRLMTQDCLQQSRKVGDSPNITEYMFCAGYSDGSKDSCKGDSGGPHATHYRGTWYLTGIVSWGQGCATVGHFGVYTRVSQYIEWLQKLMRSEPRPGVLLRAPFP
Coagulation factor VII/tissue factor, sequence (P13726 33-295 partner limits assumed): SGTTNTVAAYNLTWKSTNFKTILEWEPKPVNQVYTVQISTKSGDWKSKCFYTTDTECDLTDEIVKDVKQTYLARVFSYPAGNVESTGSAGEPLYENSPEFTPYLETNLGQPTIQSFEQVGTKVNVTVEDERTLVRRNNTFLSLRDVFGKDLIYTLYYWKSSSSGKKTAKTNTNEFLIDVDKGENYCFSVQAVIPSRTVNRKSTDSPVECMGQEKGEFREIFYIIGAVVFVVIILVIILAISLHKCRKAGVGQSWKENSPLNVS

| Structure (SMILES) | IC50 (Coagulation factor X) [µM] | IC50 [1] [µM] | IC50 (Prothrombin) [µM] |
| --- | --- | --- | --- |
| N=C(N)c1ccc(CNC(=O)CN2C(=O)[C@H](NS(=O)(=O)Cc3ccccc3)CSc3ccc(CN)cc32)cc1 | 1.72 | 1.86 | 10 |
| Cc1nc(N)ccc1CNC(=O)CCN1C(=O)[C@H](NS(=O)(=O)Cc2ccccc2)CSc2ccccc21 |  | > 33 |  |
| N=C(N)c1ccc(CNC(=O)CN2C(=O)C(NS(=O)(=O)Cc3ccccc3)CSc3ccccc32)cc1 (single isomer, unassigned) | 3.28 | 2.16 | 0.37 |
| N=C(N)c1ccc(CNC(=O)CN2C(=O)[C@H](NS(=O)(=O)Cc3ccccc3)CSc3ccc(CCN)cc32)cc1 | 2.79 | 1.32 | 6.23 |
| N=C(N)c1ccc(CNC(=O)CN2C(=O)[C@H](NS(=O)(=O)Cc3ccccc3)CSc3cc(C(=O)O)ccc32)cc1 |  | > 33 |  |
| N=C(N)c1ccc(CNC(=O)CN2C(=O)[C@H](NC(=O)C(c3ccccc3)c3ccccc3)CSc3ccccc32)cc1 |  | > 33 |  |
| N=C(N)c1ccc(CNC(=O)CN2C(=O)[C@H](NS(=O)(=O)Cc3ccccc3)CSc3cc(CCC(=O)O)ccc32)cc1 |  | 13.1 |  |
| Cc1nc(N)ccc1CNC(=O)CN1C(=O)[C@H](NCC(=O)O)CSc2ccccc21 |  | > 33 |  |
| N=C(N)c1ccc(CNC(=O)CN2C(=O)C(NC(=O)CCC(=O)O)CSc3ccccc32)cc1 (single isomer, unassigned) |  | 81 | 300 |
| CC(=O)N[C@@H]1CSc2ccccc2N(CC(=O)NCc2ccc(N)nc2C)C1=O |  | > 300 | 133 |
| CC(=O)N[C@H]1CSc2ccccc2N(CC(=O)NCc2ccc(N)nc2C)C1=O |  | > 300 | 130 |
| N=C(N)c1ccc(CNC(=O)CN2C(=O)[C@H](NS(=O)(=O)Cc3ccccc3)CSc3ccc(-c4cccc([N+](=O)[O-])c4)cc32)cc1 | 2.81 | 5.96 | 0.79 |
| N=C(N)c1ccc(CNC(=O)CCN2C(=O)[C@@H](NC(=O)CCC(=O)O)CSc3ccccc32)cc1 |  | 166 | > 33 |
| N=C(N)c1ccc(CNC(=O)CN2C(=O)[C@H](NS(=O)(=O)Cc3ccccc3)CSc3ccc(CC(=O)O)cc32)cc1 | 0.21 | 2.98 | 33 |
| N=C(N)c1ccc(CNC(=O)CN2C(=O)[C@@H](N)CSc3ccccc32)cc1 |  | 24.4 | 87 |
| N=C(N)c1ccc(CNC(=O)CCN2C(=O)[C@H](NCC(=O)O)CSc3ccccc32)cc1 |  | 95 |  |
| CC(=O)N[C@@H]1CSc2ccccc2N(CCC(=O)NCc2ccc(C(=N)N)cc2)C1=O |  | 233 |  |
| Cc1nc(N)ccc1CNC(=O)CN1C(=O)[C@H](N)CSc2ccccc21 |  | > 300 | 88 |
| N=C(N)c1ccc(CNC(=O)CCN2C(=O)[C@H](NC(=O)CCC(=O)O)CSc3ccccc32)cc1 |  | 61 |  |
| Cc1nc(N)ccc1CNC(=O)CN1C(=O)[C@H](NS(=O)(=O)Cc2ccccc2)CSc2ccccc21 |  | > 33 |  |

| Structure (SMILES) | IC50 (Coagulation factor X) [µM] | IC50 [1] [µM] | IC50 (Prothrombin) [µM] |
| --- | --- | --- | --- |
| N=C(N)c1ccc(CNC(=O)CN2C(=O)[C@H](NS(=O)(=O)Cc3ccccc3)CSc3ccc(C(=O)O)cc32)cc1 |  | 4.67 |  |
| N=C(N)c1ccc(CNC(=O)CN2C(=O)[C@H](NS(=O)(=O)Cc3ccccc3)CSc3ccc(N)cc32)cc1 | 1.52 | 2.3 | 1.89 |
| CC(=O)N[C@@H]1CSc2ccccc2N(CC(=O)NCc2ccc(C(=N)N)cc2)C1=O |  | 90 |  |
| N=C(N)c1ccc(CNC(=O)CCN2C(=O)[C@@H](NS(=O)(=O)Cc3ccccc3)CSc3ccccc32)cc1 |  | 19.7 |  |
| N=C(N)c1ccc(CNC(=O)CN2C(=O)[C@@H](NC(=O)CCC(=O)O)CSc3ccccc32)cc1 |  | 27.7 | > 300 |
| N=C(N)c1ccc(CNC(=O)CN2C(=O)[C@H](NS(=O)(=O)Cc3ccccc3)CSc3ccc(CCC(=O)O)cc32)cc1 | 2.03 | 2.64 | 33 |
| N=C(N)c1ccc(CNC(=O)CN2C(=O)[C@H](NS(=O)(=O)Cc3ccccc3)CSc3ccc(CC(N)C(=O)O)cc32)cc1 (stereo partly drawn) | 1.05 | 1.5 | 33 |
| CC(=O)N[C@H]1CSc2ccccc2N(CC(=O)NCc2ccc(C(=N)N)cc2)C1=O |  | 37.3 | 100 |
| N=C(N)c1ccc(CNC(=O)CCN2C(=O)[C@@H](NCC(=O)O)CSc3ccccc32)cc1 |  | > 330 | 33 |
| N=C(N)c1ccc(CNC(=O)CN2C(=O)[C@H](NCC(=O)O)CSc3ccccc32)cc1 |  | 15.9 |  |
| Cc1nc(N)ccc1CNC(=O)CN1C(=O)[C@@H](N)CSc2ccccc21 |  | > 300 | 88 |
| N=C(N)c1ccc(CNC(=O)CCN2C(=O)[C@H](NS(=O)(=O)Cc3ccccc3)CSc3ccccc32)cc1 |  | 63 |  |
| Cc1nc(N)ccc1CNC(=O)CCN1C(=O)[C@H](NCC(=O)O)CSc2ccccc21 |  | > 33 |  |
| N=C(N)c1ccc(CNC(=O)CN2C(=O)[C@H](NS(=O)(=O)Cc3ccccc3)CSc3cc(CC(=O)O)ccc32)cc1 |  | 14.3 |  |
| N=C(N)c1ccc(CNC(=O)CN2C(=O)[C@H](NS(=O)(=O)Cc3ccccc3)CSc3cc(N)ccc32)cc1 | 1.63 | 4.86 | 7.05 |
| N=C(N)c1ccc(CNC(=O)CN2C(=O)[C@@H](NS(=O)(=O)Cc3ccccc3)CSc3ccccc32)cc1 |  | 27.9 | 48 |
| N=C(N)c1ccc(CNC(=O)CN2C(=O)[C@H](NS(=O)(=O)Cc3ccccc3)CSc3ccc(-c4ccccc4)cc32)cc1 |  | 10.9 |  |
| N=C(N)c1ccc(CNC(=O)CN2C(=O)[C@H](NS(=O)(=O)Cc3ccccc3)CSc3cc(CN)ccc32)cc1 | 0.8 | 5.6 | 10 |
| N=C(N)c1ccc(CNC(=O)CN2C(=O)[C@H](NS(=O)(=O)Cc3ccccc3)CSc3ccc(-c4cccc(N)c4)cc32)cc1 | 3.23 | 6.86 | 10 |
| CC(=O)N[C@H]1CSc2ccccc2N(CCC(=O)NCc2ccc(C(=N)N)cc2)C1=O |  | 168 |  |
